Data on 18 compounds can be found in ChEMBL document CHEMBL1141141, “Novel, highly potent adenosine deaminase inhibitors containing the pyrazolo[3,4-d]pyrimidine ring system. Synthesis, structure-activity relationships, and molecular modeling studies” (J Med Chem, 2005).

Each structure is given as a SMILES string.

The target in one test is T1, Adenosine deaminase (Bos taurus, UniProt P56658).
T1 sequence (P56658 whole entry): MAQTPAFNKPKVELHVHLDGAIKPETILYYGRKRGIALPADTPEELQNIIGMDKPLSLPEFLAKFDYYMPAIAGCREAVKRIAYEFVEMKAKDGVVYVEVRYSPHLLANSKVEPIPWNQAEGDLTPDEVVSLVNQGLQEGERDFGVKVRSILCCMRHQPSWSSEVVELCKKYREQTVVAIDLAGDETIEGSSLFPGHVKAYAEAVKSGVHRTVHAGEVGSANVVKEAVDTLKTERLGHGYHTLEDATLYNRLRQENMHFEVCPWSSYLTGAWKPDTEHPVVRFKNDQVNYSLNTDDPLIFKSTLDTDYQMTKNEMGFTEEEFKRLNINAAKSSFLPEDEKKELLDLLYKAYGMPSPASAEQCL
Nature of the test: Inhibitory constant against bovine spleen Adenosine deaminase at >10e-5; n.a.=not active. Type of test: tissue-based.
What is called Ki is a measure of affinity in units of concentration, obtained from inhibition or displacement. A lower Ki goes with tighter binding. For the compound `CCCCCCCCCCn1cc2c(NC(C)=O)ncnc2n1`, the Ki result is listed as “Not Active”.
Same read-out and setting: to `Nc1ncnc2nn(Cc3ccccc3)cc12` belongs “Not Active”; to `Nc1ncnc2nn(CCc3ccccc3)cc12`, “Not Active”; to `CCCCCCC(O)CN1N=CC2C(N)=NC=NC21` (stereo not drawn), “Not Active”.
Turning to `CCCCCCCCCCCCn1cc2c(N)ncnc2n1`, the Ki entry is on record as “Not Active”.
Same read-out and setting: to `NC1=NC=NC2C1C=NN2CCc1ccccc1` (stereo not drawn) belongs “Not Active”; to `CCCCCCCCCCCN1N=CC2C(N)=NC=NC21` (stereo not drawn), “Not Active”.
Still for that read-out and setting: the value for `CCCCCCCCCCCCN1N=CC2C(N)=NC=NC21` (stereo not drawn) was “Not Active”; that for `CCCCCCn1cc2c(N)ncnc2n1` was “Not Active”; that for `NC1=NC=NC2C1C=NN2Cc1ccccc1` (stereo not drawn) was “Not Active”.
In the case of `CCCCCCCCCCN1N=CC2C(N)=NC=NC21` (stereo not drawn), the Ki entry is “Not Active”.
On the same count and under the same terms, to `CCCCCCCCCCn1cc2c(N)nc(-c3ccccc3)nc2n1` belongs “Not Active”.

The next test deals with T1, Adenosine deaminase.
`NC1=NC=NC2C1C=NN2CCO` (stereo not drawn) came in with an inhibition constant Ki of 4620 nM.
With `CCCCCCC(C(C)O)N1N=CC2C(N)=NC=NC21` (stereo not drawn), the Ki stood at 66.1 nM.
On the same count and under the same terms, the value for `CCCCCCCC[C@H](O)Cn1cc2c(N)ncnc2n1` was 37.5 nM; that for `CCCCCCC(O)Cn1cc2c(N)ncnc2n1` (stereo not drawn) was 1 nM; that for `CCCCCCCCC(O)Cn1cc2c(N)ncnc2n1` (stereo not drawn) was 0.28 nM.
Still for that read-out and setting: to `CCCCCCCC[C@@H](O)Cn1cc2c(N)ncnc2n1` belongs 0.053 nM.
